Assay results from ChEMBL document CHEMBL1201862, “PubChem BioAssay data set” (2004).
The source made the active and inactive calls.

Columns and labels:
HEK293 [1] = assay: cells; type: functional, cell-based; conditions: Homo sapiens
[2] = biological target: T1, Heat shock factor protein 1 (Mus musculus, UniProt P38532); assay: inhibition of MG132-induced HSE-luciferase signal, confirmation, cell-based, NIH3T3, luminescence, dose retest (AID 2382); type: functional;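 further: NIH3T3 fibroblasts with HSF1-driven luciferase reporter stressed by proteasome inhibitor MG132; luminescence from HSF1-driven luciferase expression after 8 hours of MG132 stress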
T1 sequence (P38532 whole entry): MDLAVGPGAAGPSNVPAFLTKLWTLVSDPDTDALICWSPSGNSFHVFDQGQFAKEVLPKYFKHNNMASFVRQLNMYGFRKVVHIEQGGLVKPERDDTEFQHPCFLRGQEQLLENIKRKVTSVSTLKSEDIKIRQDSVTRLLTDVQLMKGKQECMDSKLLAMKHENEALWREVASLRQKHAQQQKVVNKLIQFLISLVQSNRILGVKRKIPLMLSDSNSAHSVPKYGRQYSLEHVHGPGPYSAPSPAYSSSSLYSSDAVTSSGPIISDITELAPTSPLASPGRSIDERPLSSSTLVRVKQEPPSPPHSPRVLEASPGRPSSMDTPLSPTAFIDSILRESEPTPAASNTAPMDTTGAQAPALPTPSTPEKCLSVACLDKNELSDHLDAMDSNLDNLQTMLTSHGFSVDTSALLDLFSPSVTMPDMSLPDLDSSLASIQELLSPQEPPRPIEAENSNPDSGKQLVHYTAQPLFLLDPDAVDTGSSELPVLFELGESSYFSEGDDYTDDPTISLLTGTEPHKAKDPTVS

HEK293 [3] = assay: cells; type: functional, cell-based; conditions: Homo sapiens; remark: listed apart in the source
HEK293 [4] = assay: NOD2 signaling inhibitors in MDP-stimulated cells, cell-based, uHTS, luminescence (AID 2001); type: functional; conditions: Homo sapiens
[5] = biological target: Nucleotide-binding oligomerization domain-containing protein 2 (Homo sapiens, UniProt Q9HC29); assay: NOD2 signaling inhibitors, cell-based, luminescence, uHTS, HEK293 (AID 1566); type: functional
HEK293 [6] = assay: NOD1 signaling inhibitors, primary screen, cell-based, luminescence, uHTS (AID 1578); type: functional; conditions: Homo sapiens
HEK293 [7] = assay: cells; type: functional, cell-based; conditions: Homo sapiens; remark: listed apart in the source
[8] = Luminescence Cell-Based Dose Retest to Confirm Activators of 5'UTR Stem-Loop Driven Alpha-Synuclein mRNA Translation in H4 Neuroglioblastoma Cells. [Related pubchem assays (depositor defined):AID1813, AID1829]; type: functional
[9] = Luminescence Cell-Based Dose HTS Response to Identify Inhibitors of 5'UTR Stem-Loop Driven Prion Protein mRNA Translation in H4-C Neuroglioblastoma Cells. [Related pubchem assays (depositor defined):AID1814, AID1827]; type: functional
[10] = Luminescence Cell-Based Dose Confirmation HTS to Identify Inhibitors of 5'UTR Stem-Loop Driven Alpha-Synuclein mRNA Translation in H4 Neuroglioblastoma Cells. [Related pubchem assays: 1827 (Project Summary), 1813 (Primary HTS)]; type: functional
[11] = inhibitors of firefly luciferase expression or activity, dose response, H4 neuroglioma cells, luminescence (AID 1990); type: functional, cell-based
[12] = Luminescence Cell-Based Dose Response HTS to Identify Inhibitors of 5'UTR Stem-Loop Driven Prion Protein mRNA Translation in H4 Neuroglioblastoma Cells. [Related pubchem assays: 1827 (Project Summary), 1813 (Primary HTS)]; type: functional
[13] = Luminescence Cell-Based Dose Response HTS to Identify Activators of Luciferase Translation or Activity in H4-C Neuroglioblastoma Cells. [Related pubchem assays: 1829 (Project Summary), 1814 (Primary HTS)]; type: functional
[14] = inhibitors of SNCA 5'UTR-driven reporter translation, confirmation, H4 neuroglioma cells, luminescence (AID 1988); type: functional, cell-based
[15] = Luminescence Cell-Based Dose Response HTS to Identify Activators of 5'UTR Stem-Loop Driven Prion Protein mRNA Translation in H4-C Neuroglioblastoma Cells. [Related pubchem assays: 1829 (Project Summary), 1814 (Primary HTS)]; type: functional
[16] = cytotoxicity in HEK-293T cells, dose response, cytotoxicity control for TCR NF-kB inhibitor project, luminescence, T-cell screen hits (AID 489026); type: functional, cell-based;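 further: cells exposed to compound about 14 hours before the viability readout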
[17] = Luminescence Cell-Based Dose Response HTS to Identify Inhibitors of Luciferase Translation or Activity in H4-C Neuroglioblastoma Cells. [Related pubchem assays: 1813 (Primary HTS), 1827 (Project Summary)]; type: functional
[18] = biological target: T2, Probable nicotinate-nucleotide adenylyltransferase (Staphylococcus aureus (strain N315), UniProt P65502); type: functional, Staphylococcus aureus subsp. aureus N315; conditions: read-out: IC50_Mean;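 on IC50 Mean: confirmatory dose-response retesting of NadD inhibitor hits first found in an ultra-high-throughput screen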
[19] = biological target: Induced myeloid leukemia cell differentiation protein Mcl-1 (Homo sapiens, UniProt Q07820); type: functional
[20] = biological target: T3, Voltage-gated N-type calcium channel alpha-1B subunit/Amyloid beta A4 precursor protein-binding family A member 1 (Homo sapiens, UniProt Q00975+Q02410); assay: disruptors of Mint-PDZ/N-type channel peptide interaction – biochemical, HTRF, SAR follow-up (AID 2489); type: functional
[21] = biological target: T4, Runt-related transcription factor 1/Core-binding factor subunit beta (Homo sapiens, UniProt Q01196+Q13951); assay: inhibitors of RUNX1 Runt–CBFb-SMMHC binding, biochemical, TR-FRET (AID 1438); type: protein assay
[22] = biological target: T3, Voltage-gated N-type calcium channel alpha-1B subunit/Amyloid beta A4 precursor protein-binding family A member 1; type: protein assay
[23] = biological target: T3, Voltage-gated N-type calcium channel alpha-1B subunit/Amyloid beta A4 precursor protein-binding family A member 1; type: protein assay; remark: listed apart in the source
[24] = biological target: T4, Runt-related transcription factor 1/Core-binding factor subunit beta; assay: inhibitors of RUNX1 Runt–CBFb-SMMHC binding, primary screen, biochemical, FRET, Cerulean-Runt, Venus-CBFb-SMMHC, uHTS (AID 1434); type: protein assay;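 further: partner is the CBFb-SMMHC leukemia fusion protein rather than wild-type CBFb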
[25] = biological target: T2, Probable nicotinate-nucleotide adenylyltransferase; type: functional, Staphylococcus aureus subsp. aureus N315
NS3 = NS3 (Hepatitis C virus, UniProt A3EZJ3); assay: PubChem AID 2173; design: species or system Hepacivirus hominis
[26] = biological target: T5, Type-1 angiotensin II receptor (Homo sapiens, UniProt P30556); assay: AT1 receptor agonists, dose response, selectivity assay for APJ receptor agonist project, cell-based, uHTS hits (AID 488865); type: functional;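 further: beta-arrestin recruitment to AT1 measured by enzyme fragment complementation luminescence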
T5 sequence (P30556 whole entry): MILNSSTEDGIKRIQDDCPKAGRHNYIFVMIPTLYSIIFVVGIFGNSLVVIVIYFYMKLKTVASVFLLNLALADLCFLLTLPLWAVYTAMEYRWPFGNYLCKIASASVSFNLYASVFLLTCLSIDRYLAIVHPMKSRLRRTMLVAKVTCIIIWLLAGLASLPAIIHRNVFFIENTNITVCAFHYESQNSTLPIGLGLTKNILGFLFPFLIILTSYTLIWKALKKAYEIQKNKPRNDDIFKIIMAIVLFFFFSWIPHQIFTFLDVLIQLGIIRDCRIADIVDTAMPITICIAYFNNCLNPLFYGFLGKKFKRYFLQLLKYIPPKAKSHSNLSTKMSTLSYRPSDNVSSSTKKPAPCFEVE

T3 sequence (Q00975 whole entry): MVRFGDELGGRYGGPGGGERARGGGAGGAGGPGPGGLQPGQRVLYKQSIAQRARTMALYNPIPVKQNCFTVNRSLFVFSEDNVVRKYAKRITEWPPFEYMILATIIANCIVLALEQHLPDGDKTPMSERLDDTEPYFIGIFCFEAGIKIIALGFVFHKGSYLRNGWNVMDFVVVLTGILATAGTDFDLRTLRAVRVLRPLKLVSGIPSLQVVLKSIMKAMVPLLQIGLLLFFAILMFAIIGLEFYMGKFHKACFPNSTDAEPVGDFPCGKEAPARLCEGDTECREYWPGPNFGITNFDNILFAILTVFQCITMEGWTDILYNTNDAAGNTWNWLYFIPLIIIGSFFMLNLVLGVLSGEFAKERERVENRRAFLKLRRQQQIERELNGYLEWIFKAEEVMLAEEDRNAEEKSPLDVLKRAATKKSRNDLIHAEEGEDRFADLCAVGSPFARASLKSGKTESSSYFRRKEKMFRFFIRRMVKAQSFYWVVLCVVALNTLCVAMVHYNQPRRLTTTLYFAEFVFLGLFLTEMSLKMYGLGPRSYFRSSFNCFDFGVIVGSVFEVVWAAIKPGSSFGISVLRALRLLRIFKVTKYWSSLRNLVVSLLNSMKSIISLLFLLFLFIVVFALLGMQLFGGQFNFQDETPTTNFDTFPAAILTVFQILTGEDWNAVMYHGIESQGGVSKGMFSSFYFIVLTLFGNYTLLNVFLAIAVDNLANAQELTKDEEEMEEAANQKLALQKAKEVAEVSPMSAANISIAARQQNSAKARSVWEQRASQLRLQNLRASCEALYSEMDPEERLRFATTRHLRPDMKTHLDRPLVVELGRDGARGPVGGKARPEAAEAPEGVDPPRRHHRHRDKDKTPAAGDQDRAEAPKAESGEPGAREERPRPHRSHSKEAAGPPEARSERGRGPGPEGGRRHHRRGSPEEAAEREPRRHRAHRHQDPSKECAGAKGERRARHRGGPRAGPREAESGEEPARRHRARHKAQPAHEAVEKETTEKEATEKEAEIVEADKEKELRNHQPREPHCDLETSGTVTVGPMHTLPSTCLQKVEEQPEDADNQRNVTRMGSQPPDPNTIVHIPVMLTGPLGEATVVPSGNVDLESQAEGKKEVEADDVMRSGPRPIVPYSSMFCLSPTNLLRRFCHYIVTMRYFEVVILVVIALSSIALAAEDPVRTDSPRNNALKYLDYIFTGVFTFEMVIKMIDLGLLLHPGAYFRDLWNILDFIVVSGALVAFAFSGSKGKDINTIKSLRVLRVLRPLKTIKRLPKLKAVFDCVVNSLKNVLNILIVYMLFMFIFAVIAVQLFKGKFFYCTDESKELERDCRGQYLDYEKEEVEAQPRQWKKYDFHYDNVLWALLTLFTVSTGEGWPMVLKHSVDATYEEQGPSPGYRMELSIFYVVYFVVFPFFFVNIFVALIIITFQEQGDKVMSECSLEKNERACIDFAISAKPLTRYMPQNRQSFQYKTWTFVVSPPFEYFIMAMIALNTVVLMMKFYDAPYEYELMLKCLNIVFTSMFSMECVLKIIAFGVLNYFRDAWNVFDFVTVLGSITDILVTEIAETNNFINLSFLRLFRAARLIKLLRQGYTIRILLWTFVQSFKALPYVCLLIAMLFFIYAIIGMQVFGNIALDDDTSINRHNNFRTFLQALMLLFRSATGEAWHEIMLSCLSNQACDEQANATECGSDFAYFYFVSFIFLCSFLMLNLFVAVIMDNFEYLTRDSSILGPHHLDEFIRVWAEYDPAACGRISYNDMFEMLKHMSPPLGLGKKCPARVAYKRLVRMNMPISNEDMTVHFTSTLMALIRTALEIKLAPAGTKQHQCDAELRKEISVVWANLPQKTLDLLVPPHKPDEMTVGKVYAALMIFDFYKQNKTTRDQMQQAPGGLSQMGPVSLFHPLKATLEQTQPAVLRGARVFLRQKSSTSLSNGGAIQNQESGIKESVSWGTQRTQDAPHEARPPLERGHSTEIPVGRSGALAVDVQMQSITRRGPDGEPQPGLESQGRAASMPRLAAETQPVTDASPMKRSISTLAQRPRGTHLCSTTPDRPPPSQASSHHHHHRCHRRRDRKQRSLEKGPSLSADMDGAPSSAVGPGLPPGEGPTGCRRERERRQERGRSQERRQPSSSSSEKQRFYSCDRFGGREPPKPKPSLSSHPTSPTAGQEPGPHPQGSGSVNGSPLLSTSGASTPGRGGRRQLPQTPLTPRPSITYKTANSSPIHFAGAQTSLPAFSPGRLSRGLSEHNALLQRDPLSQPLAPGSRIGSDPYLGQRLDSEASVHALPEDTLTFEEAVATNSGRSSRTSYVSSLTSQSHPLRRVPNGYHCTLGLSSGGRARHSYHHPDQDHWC
T3 sequence (Q02410 whole entry): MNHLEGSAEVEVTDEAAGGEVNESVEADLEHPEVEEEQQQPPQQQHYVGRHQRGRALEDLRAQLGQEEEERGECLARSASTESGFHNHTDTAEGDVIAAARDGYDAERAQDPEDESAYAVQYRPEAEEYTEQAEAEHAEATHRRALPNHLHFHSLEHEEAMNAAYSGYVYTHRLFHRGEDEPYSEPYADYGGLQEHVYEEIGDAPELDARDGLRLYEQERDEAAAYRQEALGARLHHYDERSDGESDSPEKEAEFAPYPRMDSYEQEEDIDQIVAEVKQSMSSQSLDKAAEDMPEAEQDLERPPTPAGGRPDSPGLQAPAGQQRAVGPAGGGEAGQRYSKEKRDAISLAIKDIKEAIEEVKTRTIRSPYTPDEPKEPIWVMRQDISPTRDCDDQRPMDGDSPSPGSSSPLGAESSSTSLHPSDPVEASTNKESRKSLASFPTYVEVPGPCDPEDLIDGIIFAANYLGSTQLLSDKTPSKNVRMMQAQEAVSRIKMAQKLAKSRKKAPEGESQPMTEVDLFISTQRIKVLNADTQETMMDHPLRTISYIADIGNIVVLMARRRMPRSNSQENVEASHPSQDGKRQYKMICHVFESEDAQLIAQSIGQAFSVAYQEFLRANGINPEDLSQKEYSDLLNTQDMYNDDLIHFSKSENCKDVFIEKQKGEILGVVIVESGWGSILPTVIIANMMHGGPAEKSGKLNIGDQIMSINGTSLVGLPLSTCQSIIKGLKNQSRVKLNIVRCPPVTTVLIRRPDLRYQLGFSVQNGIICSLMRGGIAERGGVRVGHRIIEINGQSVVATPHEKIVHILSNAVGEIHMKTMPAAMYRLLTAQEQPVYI
T2 sequence (P65502 whole entry): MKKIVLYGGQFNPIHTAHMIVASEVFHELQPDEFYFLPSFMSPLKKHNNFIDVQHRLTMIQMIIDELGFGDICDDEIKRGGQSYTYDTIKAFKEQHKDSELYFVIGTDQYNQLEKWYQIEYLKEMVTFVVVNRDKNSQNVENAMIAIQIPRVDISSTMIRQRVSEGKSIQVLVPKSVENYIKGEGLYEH
T4 sequence (Q01196 whole entry): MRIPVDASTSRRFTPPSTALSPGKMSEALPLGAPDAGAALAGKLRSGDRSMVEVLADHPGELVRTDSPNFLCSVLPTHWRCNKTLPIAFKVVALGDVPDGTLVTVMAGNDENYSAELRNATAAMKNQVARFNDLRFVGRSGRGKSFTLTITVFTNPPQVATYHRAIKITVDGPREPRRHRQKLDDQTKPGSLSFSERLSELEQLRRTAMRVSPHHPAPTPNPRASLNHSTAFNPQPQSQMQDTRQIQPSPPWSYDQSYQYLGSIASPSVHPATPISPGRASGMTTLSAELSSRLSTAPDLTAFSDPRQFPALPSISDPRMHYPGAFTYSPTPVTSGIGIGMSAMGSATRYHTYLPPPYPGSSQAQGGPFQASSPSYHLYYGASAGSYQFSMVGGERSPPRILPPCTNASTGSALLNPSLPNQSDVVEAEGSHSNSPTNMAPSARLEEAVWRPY
T4 sequence (Q13951 whole entry): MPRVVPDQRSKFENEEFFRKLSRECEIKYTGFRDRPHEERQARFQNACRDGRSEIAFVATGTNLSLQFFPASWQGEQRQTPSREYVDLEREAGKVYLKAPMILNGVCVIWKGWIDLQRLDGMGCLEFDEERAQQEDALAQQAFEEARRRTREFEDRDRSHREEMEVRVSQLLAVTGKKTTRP
Sequence of Induced myeloid leukemia cell differentiation protein Mcl-1 (Q07820 whole entry): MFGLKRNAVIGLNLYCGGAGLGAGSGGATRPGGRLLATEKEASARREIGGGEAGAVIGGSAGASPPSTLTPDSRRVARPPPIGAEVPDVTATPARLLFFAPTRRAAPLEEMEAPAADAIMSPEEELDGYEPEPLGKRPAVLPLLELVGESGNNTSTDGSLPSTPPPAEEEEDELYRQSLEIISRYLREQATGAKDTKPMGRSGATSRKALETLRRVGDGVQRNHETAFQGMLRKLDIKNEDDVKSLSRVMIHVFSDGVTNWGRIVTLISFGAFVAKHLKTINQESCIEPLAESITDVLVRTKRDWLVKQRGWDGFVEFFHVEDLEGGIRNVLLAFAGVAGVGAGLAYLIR
Sequence of NS3 (A3EZJ3 whole entry, the tested form may be a part): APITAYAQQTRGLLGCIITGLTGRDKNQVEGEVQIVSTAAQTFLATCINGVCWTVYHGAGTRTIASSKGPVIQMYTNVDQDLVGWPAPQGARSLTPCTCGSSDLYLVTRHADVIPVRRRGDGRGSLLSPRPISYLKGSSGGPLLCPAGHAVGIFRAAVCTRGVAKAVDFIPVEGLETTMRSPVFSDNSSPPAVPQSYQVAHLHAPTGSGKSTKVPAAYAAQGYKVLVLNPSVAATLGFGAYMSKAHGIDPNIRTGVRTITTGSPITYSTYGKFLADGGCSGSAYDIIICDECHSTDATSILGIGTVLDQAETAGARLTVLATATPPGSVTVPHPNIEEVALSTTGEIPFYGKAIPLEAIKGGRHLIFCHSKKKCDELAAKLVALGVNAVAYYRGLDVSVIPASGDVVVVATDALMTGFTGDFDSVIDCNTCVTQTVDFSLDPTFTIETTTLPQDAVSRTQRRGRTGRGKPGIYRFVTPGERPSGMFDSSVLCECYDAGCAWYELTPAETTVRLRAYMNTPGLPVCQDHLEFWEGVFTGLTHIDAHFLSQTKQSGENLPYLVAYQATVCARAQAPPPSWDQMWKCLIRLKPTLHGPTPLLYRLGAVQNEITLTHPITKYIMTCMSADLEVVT

## Cc1ccc(C(=O)Nc2sc(C)c(-c3ccccc3)c2C(N)=O)cc1[N+](=O)[O-]
HEK293 [1]
  IC50: < 0.312 µM (active)
[2]
  EC50: < 0.16 µM (active)
HEK293 [3]
  IC50: > 20 µM (inactive)
HEK293 [4]
  IC50: > 20 µM (inactive)
[5]
  EC50: < 0.31 µM (inactive)
HEK293 [6]
  EC50: > 20 µM (inactive)
HEK293 [7]
  IC50: > 20 µM (inactive)

## CCOC(=O)c1[nH]c(C)c(C(=O)c2cc(F)ccc2F)c1C
[8]
  EC50: 1.66 µM (inconclusive)
[9]
  EC50: 0.241 µM (active)
[10]
  EC50: 1.66 µM (active)
[11]
  EC50: 10.6 µM (active)
[12]
  EC50: 11.5 µM (active)
[13]
  EC50: 0.557 µM (inconclusive)
[14]
  EC50: 0.2 µM (active)
[15]
  EC50: 0.241 µM (inconclusive)
[16]
  IC50: > 80 µM (inactive)
[17]
  EC50: 0.557 µM (active)

## O=C(COC(=O)c1c2c(nc3ccccc13)/C(=C/c1ccco1)CC2)NC1CCCC1
[18]
  IC50: 15 µM (active)
[19]
  IC50: 6.5 µM (active)
[20]
  IC50: 3.75 µM (active)
[21]
  IC50: 10.4 µM (active)
[22]
  IC50: 9.12 µM (active)
[23]
  IC50: 5.81 µM (active)
[24]
  IC50: > 100 µM (inactive)
[25]
  IC50: 6.95 µM (active)
NS3
  IC50: 12.6 µM (not active)

## CSc1cccc(NC(=S)NC(=O)CCc2ccccc2)c1
[26]
  EC50: > 100 µM (inactive)
